In the NIST ThermoML archive (doi:10.1021/je201334p):

Legend:
[1] = xn = mol fraction of the nth substance listed; details: 101 kPa, Liquid; for speed of sound: Sing-around technique in a fixed-path interferometer; for mass density: Vibrating tube method
[2] = refractive index (Na D-line) (dimensionless); xn = mol fraction of the nth substance listed; details: 101 kPa, Liquid, Standard Abbe refractometry

CCCCCCn1cc[n+](C)c1.N#CN=C=[N-] [1-hexyl-3-methylimidazolium dicyanamide] + O
Details	mass density, 288.15 K [kg/m3]	mass density, 298.15 K [kg/m3]	mass density, 308.15 K [kg/m3]	refractive index, 288.15 K	refractive index, 298.15 K	refractive index, 308.15 K	speed of sound, 288.15 K [m/s]	speed of sound, 298.15 K [m/s]	speed of sound, 308.15 K [m/s]
[1], x2 = 0	1034.76	1028.56	1022.4	–	–	–	1713.4	1687.7	1662.7
[1], x2 = 0.0785	1034.48	1028.25	1022.07	–	–	–	1713.4	1688.1	1663.1
[1], x2 = 0.1191	1034.31	1028.07	1021.88	–	–	–	1713.8	1688.3	1663.3
[1], x2 = 0.2124	1033.88	1027.61	1021.38	–	–	–	1714.3	1688.9	1664
[1], x2 = 0.3055	1033.38	1027.08	1020.81	–	–	–	1715	1689.7	1664.8
[1], x2 = 0.4019	1032.76	1026.41	1020.08	–	–	–	1715.8	1690.6	1665.8
[1], x2 = 0.5096	1031.9	1025.46	1019.04	–	–	–	1717	1692.1	1667.6
[1], x2 = 0.6069	1030.86	1024.31	1017.78	–	–	–	1717.9	1693.4	1668.9
[1], x2 = 0.7123	1029.08	1022.4	1015.71	–	–	–	1717.1	1693.2	1669.1
[1], x2 = 0.8067	1026.34	1019.6	1012.81	–	–	–	1709.4	1687.6	1665.3
[1], x2 = 0.9031	1020.46	1014.13	1007.62	–	–	–	1672	1659.1	1644.5
[1], x2 = 0.9499	1014.51	1009.12	1003.34	–	–	–	1618.9	1618.6	1614.6
[2], x2 = 0	–	–	–	1.50729	1.50415	1.501	–	–	–
[2], x2 = 0.0785	–	–	–	1.50599	1.50284	1.49962	–	–	–
[2], x2 = 0.1191	–	–	–	1.50525	1.5021	1.49894	–	–	–
[2], x2 = 0.2124	–	–	–	1.50333	1.50016	1.49698	–	–	–
[2], x2 = 0.3055	–	–	–	1.50096	1.4978	1.49462	–	–	–
[2], x2 = 0.4019	–	–	–	1.49784	1.49467	1.49131	–	–	–
[2], x2 = 0.5096	–	–	–	1.49312	1.48997	1.48679	–	–	–
[2], x2 = 0.6069	–	–	–	1.48721	1.48405	1.48083	–	–	–
[2], x2 = 0.7123	–	–	–	1.47716	1.474	1.47076	–	–	–
[2], x2 = 0.8067	–	–	–	1.46233	1.45924	1.4559	–	–	–
[2], x2 = 0.9031	–	–	–	1.43179	1.42902	1.42645	–	–	–
[2], x2 = 0.9499	–	–	–	1.40179	1.39945	1.39679	–	–	–

COS(=O)(=O)[O-].C[n+]1ccccc1 [1-methylpyridinium methylsulfate] + O
Details	mass density, 288.15 K [kg/m3]	mass density, 298.15 K [kg/m3]	mass density, 308.15 K [kg/m3]	refractive index, 288.15 K	refractive index, 298.15 K	refractive index, 308.15 K	speed of sound, 288.15 K [m/s]	speed of sound, 298.15 K [m/s]	speed of sound, 308.15 K [m/s]
[1], x2 = 0	1352.86	1346.12	1339.37	–	–	–	1901.1	1875.8	1852.4
[1], x2 = 0.0574	1350.36	1343.61	1336.86	–	–	–	1900.5	1876	1852.3
[1], x2 = 0.073	1349.61	1342.85	1336.11	–	–	–	1901.4	1876.4	1852.7
[1], x2 = 0.1111	1347.74	1340.98	1334.23	–	–	–	1901.9	1877.4	1853.7
[1], x2 = 0.1927	1343.32	1336.56	1329.82	–	–	–	1903.2	1879.2	1855.8
[1], x2 = 0.2941	1336.61	1329.85	1323.12	–	–	–	1906.5	1882.6	1859.2
[1], x2 = 0.4005	1327.54	1320.8	1314.09	–	–	–	1909.5	1886.2	1863.4
[1], x2 = 0.4996	1316.5	1309.79	1303.09	–	–	–	1912.2	1889.5	1867
[1], x2 = 0.6077	1299.41	1292.74	1286.07	–	–	–	1913.2	1891	1868.9
[1], x2 = 0.7064	1276.09	1269.51	1262.91	–	–	–	1906.8	1885.4	1863.4
[1], x2 = 0.8058	1237.51	1231.17	1224.76	–	–	–	1878	1859.2	1837.7
[1], x2 = 0.901	1168.89	1163.31	1157.51	–	–	–	1782.3	1772.7	1760.4
[1], x2 = 0.9497	1107.24	1102.67	1097.68	–	–	–	1670.4	1673.5	1673.4
[1], x2 = 0.9645	1081.91	1077.85	1073.27	–	–	–	1622.5	1633.3	1637.2
[2], x2 = 0	–	–	–	1.51603	1.5134	1.51077	–	–	–
[2], x2 = 0.0574	–	–	–	1.51462	1.51199	1.50937	–	–	–
[2], x2 = 0.073	–	–	–	1.51423	1.51159	1.50895	–	–	–
[2], x2 = 0.1111	–	–	–	1.51315	1.51052	1.50794	–	–	–
[2], x2 = 0.1927	–	–	–	1.51059	1.50803	1.50539	–	–	–
[2], x2 = 0.2941	–	–	–	1.50679	1.50426	1.5017	–	–	–
[2], x2 = 0.4005	–	–	–	1.50177	1.49921	1.49665	–	–	–
[2], x2 = 0.4996	–	–	–	1.49567	1.49314	1.49057	–	–	–
[2], x2 = 0.6077	–	–	–	1.48632	1.48384	1.48134	–	–	–
[2], x2 = 0.7064	–	–	–	1.47388	1.47142	1.46886	–	–	–
[2], x2 = 0.8058	–	–	–	1.45378	1.45141	1.44897	–	–	–
[2], x2 = 0.901	–	–	–	1.41884	1.4167	1.41447	–	–	–
[2], x2 = 0.9497	–	–	–	1.38778	1.38593	1.38397	–	–	–
[2], x2 = 0.9645	–	–	–	1.37506	1.37336	1.37158	–	–	–
